Test results from the supplement of paper PMC13380429.
± gives the standard deviation of the averaged measurements.

Key:
Conditions in all cases: 72 h
[1] = test system: Calu-3; assay: cell viability relative to DMSO; higher = less toxic
[2] = test system: U2OS; assay: as above
[3] = test system: Vero E6; assay: as above
[4] = test system: HepG2; assay: as above
[5] = test system: Caco-2; assay: as above
[6] = test system: Calu-3; assay: drug sensitivity score (DSS) for viability; higher = more toxic; extreme values may be limits of the assay
[7] = test system: U2OS; assay: as above
[8] = test system: Vero E6; assay: as above
[9] = test system: HepG2; assay: as above
[10] = test system: Caco-2; assay: as above
[11] = test system: Calu-3; assay: relative viability EC50 (midpoint between 100% and the lowest measured viability); higher = less toxic
[12] = test system: U2OS; assay: as above
[13] = test system: Vero E6; assay: as above
[14] = test system: HepG2; assay: as above
[15] = test system: Caco-2; assay: as above

Structure (SMILES)	cell viability ([1]; 1 nM) [%]	cell viability ([1]; 10 nM) [%]	cell viability ([1]; 100 nM) [%]	cell viability ([1]; 1000 nM) [%]	cell viability ([1]; 10000 nM) [%]	cell viability ([2]; 1 nM) [%]	cell viability ([2]; 10 nM) [%]	cell viability ([2]; 100 nM) [%]	cell viability ([2]; 1000 nM) [%]	cell viability ([2]; 10000 nM) [%]	cell viability ([3]; 1 nM) [%]	cell viability ([3]; 10 nM) [%]	cell viability ([3]; 100 nM) [%]	cell viability ([3]; 1000 nM) [%]	cell viability ([3]; 10000 nM) [%]	cell viability ([4]; 1 nM) [%]	cell viability ([4]; 10 nM) [%]	cell viability ([4]; 100 nM) [%]	cell viability ([4]; 1000 nM) [%]	cell viability ([4]; 10000 nM) [%]	cell viability ([5]; 1 nM) [%]	cell viability ([5]; 10 nM) [%]	cell viability ([5]; 100 nM) [%]	cell viability ([5]; 1000 nM) [%]	cell viability ([5]; 10000 nM) [%]	drug sensitivity score [6]	drug sensitivity score [7]	drug sensitivity score [8]	drug sensitivity score [9]	drug sensitivity score [10]	relative viability EC50 [11] [µM]	relative viability EC50 [12] [µM]	relative viability EC50 [13] [µM]	relative viability EC50 [14] [µM]	relative viability EC50 [15] [µM]
C[C@@H]1C[C@H]2[C@@H]3C[C@H](F)C4=CC(=O)C=C[C@]4(C)[C@@]3(Cl)[C@@H](O)C[C@]2(C)[C@H]1C(=O)COC(=O)C(C)(C)C [clocortolone-pivalate]	92.9	88.2	102	96.2	97.3	95.7	93	90.1	90.7	93.4	101	90.6	99.6	95.4	110	98.8	93.6	99.1	103	108	90.6	99.2	91	100	112	0	0	0	0	0	> 10	> 10	> 10	> 10	> 10
CN(C)[C@@H](CCOc1cccc2ccccc12)c1ccccc1 [dapoxetine]	103	104	105	91.7	81.3	103	103	103	98.2	89.3	97.5	101	98.7	98.8	88.6	94.1	104	97.1	95.7	89	98.5	96	101	102	89.6	1.3	0	0.1	0	0	> 10	> 10	> 10	> 10	> 10
COc1ccc2c(c1)CN(C)CC2c1ccc(Cl)c(Cl)c1 (stereo not given) [diclofensine]	103	106	107	101	87.9	99.3	103	93.3	100	93.2	96	99.3	94.5	95.7	91.1	101	98.8	95.9	103	97.2	96.6	94	86	95.6	83.5	0	0	0	0	0.6	> 10	> 10	> 10	> 10	> 10
C[C@H]1c2cccc(O)c2C(=O)C2=C(O)[C@]3(O)C(=O)C(C(N)=O)=C(O)[C@@H](N(C)C)[C@@H]3[C@@H](O)[C@@H]21 [doxycycline]	95.8 ± 5.4	108 ± 3.1	107 ± 3.3	104 ± 2.9	99.8 ± 8	96.5 ± 1.9	98.8 ± 1.1	96.2 ± 2	101 ± 2.3	98.6 ± 4	101 ± 2.9	95.8 ± 4.3	101 ± 4.5	97.8 ± 9.4	100 ± 1.8	100 ± 2.8	94.3 ± 5.3	98.7 ± 9.5	108 ± 21	94.8 ± 4.3	90.2 ± 11	96.8 ± 0.85	92.6 ± 3.1	90.1 ± 5.4	88 ± 0.92	0	0	0	0	0.05 ± 0.071	> 10	> 10	> 10	> 10	> 10
N[C@@]1(C(=O)O)CC[C@H]2[C@H](C(=O)O)[C@H]21 [eglumetad]	95.7	102	97.3	93.2	104	101	101	97.3	96.6	96	99	99	94.9	100	96.6	113	92.5	102	97.6	116	107	104	93.8	102	97.2	0	0	0	0	0	> 10	> 10	> 10	> 10	> 10
CSc1ccc(C(=O)/C=C/c2cc(C)c(OC(C)(C)C(=O)O)c(C)c2)cc1 [elafibranor]	101	97	100	108	114	99.7	94	97.7	98.1	94.3	90.8	97	89.5	91.1	98.5	101	108	93.5	99.1	96.3	99.5	92.5	103	90.5	84.6	0	0	0	0	1	> 10	> 10	> 10	> 10	> 10
Cc1cc(O)c2c(c1)C(=O)c1cc(O)cc(O)c1C2=O [emodin]	93.6	104	95	94.2	102	94.2	103	93.8	101	103	103	95	97.1	100	106	105	96.7	105	98.5	106	95.4	91	92.8	93.9	97	0	0	0	0	0	> 10	> 10	> 10	> 10	> 10
